{"source": "paper PMC4604124", "about": "“In Vitro Characterization of the Pharmacological Properties of the Anti-Cancer Chelator, Bp4eT, and Its Phase I Metabolites” (PLoS ONE, 2015)", "key": {"H9c2 cardiomyoblasts": {"system": "H9c2 cardiomyoblasts", "experiment": "MTT cytotoxicity assay, H9c2 cells", "type": "cell-based, rat", "settings": "for IC50: MTT, read-out: IC50", "protocol": "(§1) For cytotoxicity experiments, cancer cells were seeded at a density of 5,000 (MCF-7), 10,000 (HL-60) or 2,000 cells/well (HCT116 and A549) in 96-well plates (TPP) for 24 h/37°C prior to the addition of examined agents. The non-cancerous cells, 3T3 and H9c2 cells, were cultured for 24 h/37°C in 96-well plates at a density of 10,000 cells/well, the medium was then changed to serum- and pyruvate-free DMEM (Sigma-Aldrich) and incubated with the cells for another 24 h/37°C. The cytotoxic effects of Bp4eT and its metabolites were studied at different concentrations after a 72 h/37°C incubation. In order to aid the dissolution of the lipophilic ligands, 0.1% dimethyl sulfoxide (v/v) (DMSO; Sigma-Aldrich) was present in the culture medium of all groups. At this concentration, DMSO had no effect on cellular proliferation or viability.\n(§2) The viability of cells were determined using an MTT assay (Sigma-Aldrich) according to previously established methods. The optical density of soluble MTT was measured at λ = 570 nm, subtracting the λ = 690 nm background using a Tecan Infinite 200M plate reader (Tecan Group, Männedorf, Switzerland). The viability or proliferation of experimental groups was expressed as a percentage of the untreated controls (100%).\n(§3) SigmaStat for Windows 3.5 (Systat Software, San Jose, CA, USA) statistical software package was utilized to analyze results. The data are expressed as the mean ± SD of a given number of experiments. Statistical significance was determined using a one-way ANOVA with a Bonferroni post-hoc test or Student’s t-test. The results were considered to be statistically significant when p < 0.05. The IC50 values were calculated using CalcuSyn 2.0 software (Biosoft, Cambridge, UK). Cell cycle analysis was evaluated using MultiCycle AV Software (Phoenix Flow Systems, San Diego, CA, USA)."}, "[1]": {"experiment": "MTT cytotoxicity assay, 3T3 cells", "type": "cell-based, mouse", "settings": "mouse, 3T3 mouse embryo fibroblasts, 3T3, 10 000 b/j; for viability at 72 h, 1 μM: koncentrace 1 μM; for viability at 72 h, 3 μM: koncentrace 3 μM; for viability at 72 h, 10 μM: koncentrace 10 μM; for viability at 72 h, 30 μM: koncentrace 30 μM; for viability at 72 h, 100 μM: koncentrace 100 μM; for viability at 72 h, 300 μM: koncentrace 300 μM; for viability at 72 h, 1000 μM: koncentrace 1000 μM", "protocol": "as §1, §2, §3"}, "[2]": {"system": "3T3 mouse embryo fibroblasts", "experiment": "MTT cytotoxicity assay, 3T3 cells", "type": "cell-based", "settings": "for MTT viability (0 = 100): 3T3, 10 000 b/j, individual experiments", "protocol": "as §1, §2, §3"}, "caspases 3/7": {"system": "caspases 3/7", "experiment": "Caspase activity, luminescent kit, caspases 3/7", "type": "cell-based, human", "settings": "for kaspáza (3) a 7, raw signal / kaspáza (3) a 7, signal / viabilita: individual experiments by date; for kaspáza (3) a 7, raw signal, průměry / kaspáza (3) a 7, % kontroly / kaspáza (3) a 7, signal / viabilita, průměry: mean; for kaspáza (3) a 7, % kontroly / kaspáza (3) a 7, signal / viabilita / kaspáza (3) a 7, signal / viabilita, průměry: normalised to viability", "protocol": "To assess the effect of the compounds on caspase activity, MCF-7 cells were incubated with 100 nM Bp4eT or its metabolites for 3, 24 or 72 h/37°C in 96-well plates, as described above. The cells were then lysed by adding 100 μL of cold lysis buffer (100 mM HEPES, 10 mM CHAPS, 10 mM D-L-dithiothreitol, pH 7.4) to 100 μL of medium in each well. Lysates were immediately frozen at -80°C. Thawed lysates were used to assess caspase activity using luminescent kits for caspases 3/7, 8 and 9 (Promega, Madison, WI, USA). The luminescence was measured using the Tecan Infinite 200M plate reader. Caspase activity in the experimental groups was corrected according to the cellular viability of each group and expressed as a percentage of activity of the untreated control (100%)."}, "[3]": {"settings": "individual experiments, read-out: MTT viability (0 = 100)"}, "[4]": {"settings": "mean, read-out: MTT viability (0 = 100), průměr"}}, "note": "Several values for one entry are separate records, joined by “and”; a condition that tells them apart may be missing. Equal values may be shown once. Read-outs that look alike come from different tables or passages of the source."}
{"molecule": "CCNC(=O)NN=C(c1ccccc1)c1ccccn1", "note": "[E-Bp4eS, 2-benzoylpyridine 4-ethylsemicarbazone]", "values": [{"measurement": "IC50", "setting": "H9c2 cardiomyoblasts; H9c2, 72 h/37°C, mean ± SD, n ≥ 4", "value": "884 ± 279", "unit": "µM"}, {"measurement": "MTT, relative to control (0 = 100)", "setting": "H9c2 cardiomyoblasts; H9c2, 10 000 b/j, 1 μM, průměr (mean), sheet E-Bp4eS", "value": 94.39}, {"measurement": "MTT, relative to control (0 = 100)", "setting": "H9c2 cardiomyoblasts; H9c2, 10 000 b/j, 1 μM, single experiment (date), sheet E-Bp4eS", "value": "95.7668 and 93.0745 and 94.7872 and 93.9178"}, {"measurement": "MTT, relative to control (0 = 100)", "setting": "H9c2 cardiomyoblasts; H9c2, 10 000 b/j, 3 μM, průměr (mean), sheet E-Bp4eS", "value": 94.04}, {"measurement": "MTT, relative to control (0 = 100)", "setting": "H9c2 cardiomyoblasts; H9c2, 10 000 b/j, 3 μM, single experiment (date), sheet E-Bp4eS", "value": "97.8721 and 90.4272 and 95.5074 and 92.3686"}, {"measurement": "MTT, relative to control (0 = 100)", "setting": "H9c2 cardiomyoblasts; H9c2, 10 000 b/j, 10 μM, průměr (mean), sheet E-Bp4eS", "value": 92.87}, {"measurement": "MTT, relative to control (0 = 100)", "setting": "H9c2 cardiomyoblasts; H9c2, 10 000 b/j, 10 μM, single experiment (date), sheet E-Bp4eS", "value": "97.5948 and 91.5814 and 93.3122 and 89.0018"}, {"measurement": "MTT, relative to control (0 = 100)", "setting": "H9c2 cardiomyoblasts; H9c2, 10 000 b/j, 30 μM, průměr (mean), sheet E-Bp4eS", "value": 87.33}, {"measurement": "MTT, relative to control (0 = 100)", "setting": "H9c2 cardiomyoblasts; H9c2, 10 000 b/j, 30 μM, single experiment (date), sheet E-Bp4eS", "value": "92.2111 and 86.1798 and 89.4636 and 81.4505"}, {"measurement": "MTT, relative to control (0 = 100)", "setting": "H9c2 cardiomyoblasts; H9c2, 10 000 b/j, 100 μM, průměr (mean), sheet E-Bp4eS", "value": 77.15}, {"measurement": "MTT, relative to control (0 = 100)", "setting": "H9c2 cardiomyoblasts; H9c2, 10 000 b/j, 100 μM, single experiment (date), sheet E-Bp4eS", "value": "79.5863 and 76.8996 and 78.6318 and 73.5016"}, {"measurement": "MTT, relative to control (0 = 100)", "setting": "H9c2 cardiomyoblasts; H9c2, 10 000 b/j, 300 μM, průměr (mean), sheet E-Bp4eS", "value": 65.67}, {"measurement": "MTT, relative to control (0 = 100)", "setting": "H9c2 cardiomyoblasts; H9c2, 10 000 b/j, 300 μM, single experiment (date), sheet E-Bp4eS", "value": "61.9338 and 65.3898 and 65.2717 and 70.085"}, {"measurement": "MTT, relative to control (0 = 100)", "setting": "H9c2 cardiomyoblasts; H9c2, 10 000 b/j, 1000 μM, průměr (mean), sheet E-Bp4eS", "value": 48.11}, {"measurement": "MTT, relative to control (0 = 100)", "setting": "H9c2 cardiomyoblasts; H9c2, 10 000 b/j, 1000 μM, single experiment (date), sheet E-Bp4eS", "value": "55.0254 and 43.1142 and 38.2886 and 56.005"}, {"measurement": "IC50", "setting": "H9c2 cardiomyoblasts; H9c2, 10 000 b/j, single experiment (date), sheet E-Bp4eS", "value": "683 µM and 1140 µM and 606 µM"}, {"measurement": "IC50", "setting": "H9c2 cardiomyoblasts; Rattus norvegicus, H9c2, H9c2, 10 000 b/j, průměr (mean), sheet E-Bp4eS", "value": 884, "unit": "µM"}, {"measurement": "IC50", "setting": "H9c2 cardiomyoblasts; Rattus norvegicus, H9c2, H9c2, 10 000 b/j, single experiment (date), sheet E-Bp4eS", "value": 1100, "unit": "µM"}, {"measurement": "viability at 72 h, 1 μM", "setting": "[1]; [3]", "value": 91, "unit": "%"}, {"measurement": "viability at 72 h, 1 μM", "setting": "[1]; [4]", "value": 98, "unit": "%"}, {"measurement": "viability at 72 h, 3 μM", "setting": "[1]; [3]", "value": 96.2, "unit": "%"}, {"measurement": "viability at 72 h, 3 μM", "setting": "[1]; [4]", "value": 94.8, "unit": "%"}, {"measurement": "viability at 72 h, 10 μM", "setting": "[1]; [3]", "value": 91.6, "unit": "%"}, {"measurement": "viability at 72 h, 10 μM", "setting": "[1]; [4]", "value": 92.9, "unit": "%"}, {"measurement": "viability at 72 h, 30 μM", "setting": "[1]; [3]", "value": 86.3, "unit": "%"}, {"measurement": "viability at 72 h, 30 μM", "setting": "[1]; [4]", "value": 90.2, "unit": "%"}, {"measurement": "viability at 72 h, 100 μM", "setting": "[1]; [3]", "value": 87.1, "unit": "%"}, {"measurement": "viability at 72 h, 100 μM", "setting": "[1]; [4]", "value": 83.9, "unit": "%"}, {"measurement": "viability at 72 h, 300 μM", "setting": "[1]; [3]", "value": 85.3, "unit": "%"}, {"measurement": "viability at 72 h, 300 μM", "setting": "[1]; [4]", "value": 81.5, "unit": "%"}, {"measurement": "viability at 72 h, 1000 μM", "setting": "[1]; [3]", "value": 74.1, "unit": "%"}, {"measurement": "viability at 72 h, 1000 μM", "setting": "[1]; [4]", "value": 66.7, "unit": "%"}, {"measurement": "MTT viability (0 = 100)", "setting": "[2]; koncentrace 1 μM", "value": "96.8721 and 104.341 and 100.156 and 97.6643"}, {"measurement": "MTT viability (0 = 100)", "setting": "[2]; koncentrace 3 μM", "value": "91.697 and 99.6923 and 92.7572 and 93.5961"}, {"measurement": "MTT viability (0 = 100)", "setting": "[2]; koncentrace 10 μM", "value": "87.504 and 95.4305 and 94.9836 and 95.1509"}, {"measurement": "MTT viability (0 = 100)", "setting": "[2]; koncentrace 30 μM", "value": "95.2772 and 94.6873 and 87.6265 and 86.7904"}, {"measurement": "MTT viability (0 = 100)", "setting": "[2]; koncentrace 100 μM", "value": "89.4336 and 75.046 and 83.8477"}, {"measurement": "MTT viability (0 = 100)", "setting": "[2]; koncentrace 300 μM", "value": "87.9502 and 69.8243 and 82.8158"}, {"measurement": "MTT viability (0 = 100)", "setting": "[2]; koncentrace 1000 μM", "value": "61.3011 and 59.7855 and 71.6828"}, {"measurement": "IC50", "setting": "[2]; Mus musculus, Fibroblast, 72 h, 3T3, 72 h/37°C, MTT, mean ± SD, n ≥ 4, read-out: IC50", "value": "> 1000", "unit": "µM"}, {"measurement": "kaspáza (3) a 7, raw signal", "setting": "caspases 3/7; 3 hodiny", "value": "2046.5 and 1555.5 and 1698 and 1596"}, {"measurement": "kaspáza (3) a 7, raw signal, průměry", "setting": "caspases 3/7; 3 hodiny", "value": 1724}, {"measurement": "kaspáza (3) a 7, % kontroly", "setting": "caspases 3/7; 3 hodiny", "value": 106.30, "unit": "% kontroly"}, {"measurement": "kaspáza (3) a 7, signal / viabilita", "setting": "caspases 3/7; 3 hodiny", "value": "20.8429 and 15.8422 and 17.2935 and 16.2547"}, {"measurement": "kaspáza (3) a 7, signal / viabilita, průměry", "setting": "caspases 3/7; 3 hodiny", "value": 17.5583}, {"measurement": "kaspáza (3) a 7, raw signal", "setting": "caspases 3/7; 24 hodin", "value": "2362.5 and 2475 and 2765.5 and 2572"}, {"measurement": "kaspáza (3) a 7, raw signal, průměry", "setting": "caspases 3/7; 24 hodin", "value": 2543.75}, {"measurement": "kaspáza (3) a 7, % kontroly", "setting": "caspases 3/7; 24 hodin", "value": 112.45, "unit": "% kontroly"}, {"measurement": "kaspáza (3) a 7, signal / viabilita", "setting": "caspases 3/7; 24 hodin", "value": "23.7515 and 24.8825 and 27.8031 and 25.8577"}, {"measurement": "kaspáza (3) a 7, signal / viabilita, průměry", "setting": "caspases 3/7; 24 hodin", "value": 25.5737}, {"measurement": "kaspáza (3) a 7, raw signal", "setting": "caspases 3/7; 72 hodin", "value": "7302.5 and 8023 and 7227 and 8569"}, {"measurement": "kaspáza (3) a 7, raw signal, průměry", "setting": "caspases 3/7; 72 hodin", "value": 7780.38}, {"measurement": "kaspáza (3) a 7, % kontroly", "setting": "caspases 3/7; 72 hodin", "value": 107.49, "unit": "% kontroly"}, {"measurement": "kaspáza (3) a 7, signal / viabilita", "setting": "caspases 3/7; 72 hodin", "value": "74.6601 and 82.0264 and 73.8882 and 87.6086"}, {"measurement": "kaspáza (3) a 7, signal / viabilita, průměry", "setting": "caspases 3/7; 72 hodin", "value": 79.5458}]}
